Experimental data from article PMC4492822 (EMBO Molecular Medicine, 2015).

Legend:
H1299 cells [1] = experiment: qRT-PCR of TCF-regulated genes; type: cell-based
Source text: RNA was extracted according to the manufacturer's instructions (Qiagen, Valencia, CA, USA), and cDNA was manufactured using qScript cDNA synthesis kit (Quanta BioSciences, Gaithersburg, MD, USA), followed by qPCR using SYBR green (Quanta BioSciences) on an iCycler5 (Bio-Rad, Hercules, CA, USA). Amplification of 36B4, a housekeeping gene, was used for normalizing gene expression values.

H1299 cells [2] = experiment: Immunoblotting of cell cycle, apoptosis, MAPK and DNA repair proteins; type: cell-based
Experimental: Cell lysate was prepared with TB buffer method. For immunoblotting, ~25 μg protein was loaded on 10% SDS–PAGE gels. […] The blots were developed with clarity Western ECL (Bio-Rad, Hercules, CA, USA) and imaged with G:BOX Chemi XR5 (Syngene, Frederick, MD, USA).

[3] = system: TCF4 activity in H1299 cells; experiment: TCF reporter assay (TOP/FOP-FLASH); type: cell-based; conditions: 0, 1, 2, and 3 μM; wild-type and β-catenin-overexpressing cells
Experimental: (§1) Transcriptional activity of TCF4 was assayed using the dual luciferase assay (Promega, Madison, WI, USA) according to the manufacturer's instructions. Briefly, 1.5 × 10^4 A549 or H1299 cells were transfected with 500 ng of TOP-FLASH and control FOP-FLASH constructs along with 50 ng of phRL Renilla constructs as transfection controls as well as with 500 ng β-catenin constructs when indicated. Cells were cultured for 24 h and then lysed in passive lysis buffer. Luminescence was detected using a luminometer (Berthold Sirius, Oak Ridge, TN, USA). Relative TCF4 promoter activity was calculated by dividing firefly luminescence by Renilla luminescence, and then normalized TOP-FLASH was divided by normalized FOP-FLASH, which was finally normalized to vector or DMSO control cells. All experiments were repeated three times, and differences were assessed by the paired t-test.

[4] = molecular target: Ded1p (yeast homolog of DDX3) (Saccharomyces cerevisiae, UniProt P06634); experiment: RNA helicase (unwinding) assay; type: biochemical; conditions: Ded1p 80 nM, 100 μM ATP; 50, 100, 200 nM tested
Experimental: The RNA helicase assay was performed as described earlier (Sengoku et al, [2006]) with a few modifications. Briefly, RNA oligomers R41 (unlabeled 41 nt) 5′-[…]-[…]-3′ and R13 (FAM-labeled 13 nt) 5′-[…]-3′ were annealed to form […] RNA duplexes and incubated with R13C (unlabeled 13-nt quencher RNA complementary to R13) 5′-[…]-3′, along with Ded1p protein (80 nM), 100 μM ATP, and […] RNasin (Promega, Madison, WI, USA) in reaction buffer containing 50 mM Tris, pH 7.8, 2 mM MgCl2, 3% glycerol, and 1 mM DTT for various times at room temperature. Reactions were stopped after 30-min incubation at room temperature with stop solution containing proteinase K (1 mg/ml) and SDS (0.6%). Reactions were loaded on acrylamide gels and bands visualized using a Typhoon scanner (GE Healthcare, Piscataway, NJ, USA).

[5] = system: TCF4 activity in A549 cells; experiment: TCF reporter assay (TOP/FOP-FLASH); type: cell-based, human; conditions: 0, 1, 2, and 3 μM; wild-type and β-catenin-overexpressing cells
Experimental: as §1

Ded1p (yeast homolog of DDX3), sequence (P06634 whole entry): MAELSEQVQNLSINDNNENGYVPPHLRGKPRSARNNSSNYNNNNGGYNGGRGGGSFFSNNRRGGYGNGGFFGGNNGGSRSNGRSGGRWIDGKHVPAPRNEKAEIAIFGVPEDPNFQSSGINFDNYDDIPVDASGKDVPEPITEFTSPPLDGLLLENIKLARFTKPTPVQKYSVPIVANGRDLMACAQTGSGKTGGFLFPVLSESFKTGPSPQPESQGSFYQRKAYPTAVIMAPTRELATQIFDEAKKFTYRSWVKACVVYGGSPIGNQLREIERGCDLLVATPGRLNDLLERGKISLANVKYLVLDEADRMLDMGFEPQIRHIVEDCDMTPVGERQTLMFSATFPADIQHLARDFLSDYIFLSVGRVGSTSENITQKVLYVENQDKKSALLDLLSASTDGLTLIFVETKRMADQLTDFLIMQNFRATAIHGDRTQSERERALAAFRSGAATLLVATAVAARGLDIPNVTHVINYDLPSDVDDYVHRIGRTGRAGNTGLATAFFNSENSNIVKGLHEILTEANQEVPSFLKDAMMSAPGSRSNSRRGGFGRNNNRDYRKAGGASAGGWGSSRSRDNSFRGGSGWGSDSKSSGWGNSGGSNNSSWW

Substance: diimidazo[4,5-d:4′,5′-f]-[1,3]diazepine [RK-33]
- reduction of Axin-2 mRNA expression (H1299 cells [1]): 1.8 fold
- reduction of Cyclin D1 mRNA expression (H1299 cells [1]): 2.4 fold
- DNA repair proteins ATR and XRCC4 (H1299 cells [2]; 6 μM for 4 h, then 5 Gy): decrease of ATR but not XRCC4
- phosphorylated ERK2 and ERK1 (H1299 cells [2]; 7.5 μM or 10 μM, 24 h): reduction of phosphorylated ERK2 and ERK1
- cyclin D1 protein (H1299 cells [2]; 10 μM, especially evident 2 h after treatment): substantial reduction of cyclin D1
- TCF activity [3]: reduced TCF activity significantly
- concentration from which unwinding activity is reduced (dose-dependent) [4]: 50 nM
- TCF activity [5]: reduced TCF activity significantly
